{"source": "ChEMBL document CHEMBL1201862", "about": "“PubChem BioAssay data set” (2004)", "key": {"[1]": {"target": "T1, Delta-type opioid receptor (Homo sapiens, UniProt P41143)", "T1 sequence (P41143 whole entry)": "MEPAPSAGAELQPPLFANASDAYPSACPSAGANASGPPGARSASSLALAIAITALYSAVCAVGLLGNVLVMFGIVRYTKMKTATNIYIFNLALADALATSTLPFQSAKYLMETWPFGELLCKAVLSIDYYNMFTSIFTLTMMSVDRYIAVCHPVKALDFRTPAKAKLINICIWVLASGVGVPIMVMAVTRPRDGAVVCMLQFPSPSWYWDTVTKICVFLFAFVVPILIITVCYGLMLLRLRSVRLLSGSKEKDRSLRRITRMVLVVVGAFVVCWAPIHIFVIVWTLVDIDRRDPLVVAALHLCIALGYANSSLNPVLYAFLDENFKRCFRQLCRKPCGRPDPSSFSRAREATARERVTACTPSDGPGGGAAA", "assay": "HTS Image-Based Screen for Antagonists of the DOR Receptor. [Related pubchem assays (depositor defined):AID1777, AID1785, AID1786, AID2133]", "type": "functional"}, "Mu-type opioid receptor": {"target": "Mu-type opioid receptor (Homo sapiens, UniProt P35372)", "sequence (P35372 whole entry)": "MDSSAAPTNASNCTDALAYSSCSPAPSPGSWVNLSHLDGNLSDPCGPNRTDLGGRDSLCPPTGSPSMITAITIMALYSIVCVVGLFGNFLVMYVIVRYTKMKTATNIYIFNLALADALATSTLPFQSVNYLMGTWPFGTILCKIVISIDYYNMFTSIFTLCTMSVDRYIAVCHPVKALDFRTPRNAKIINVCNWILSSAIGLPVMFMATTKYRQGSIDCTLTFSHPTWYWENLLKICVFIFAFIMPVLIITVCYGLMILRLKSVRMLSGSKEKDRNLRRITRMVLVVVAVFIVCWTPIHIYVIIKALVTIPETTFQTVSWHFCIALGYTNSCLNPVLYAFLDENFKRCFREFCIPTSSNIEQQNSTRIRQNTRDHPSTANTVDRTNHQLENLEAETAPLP", "assay": "HTS Image-Based Screen for Agonists of the MOR Receptor. [Related pubchem assays (depositor defined):AID1777, AID1785, AID1786, AID2133]", "type": "functional"}, "[2]": {"system": "Streptococcus sp. 'group A'", "assay": "Streptococcus pyogenes SK(-)GAS viability under kanamycin – luminescence, BacTiterGlo, confirmation, counter-screen for streptokinase expression inhibitor project, dose response (AID 1900)", "type": "functional, organism-based"}, "[3]": {"target": "T1, Delta-type opioid receptor", "assay": "HTS Image-Based Screen for Agonists of the DOR Receptor. [Related pubchem assays (depositor defined):AID1777, AID1786, AID2133]", "type": "functional"}, "Beta-galactosidase [4]": {"target": "T2, Beta-galactosidase (Escherichia coli, UniProt Q8VNN2)", "T2 sequence (Q8VNN2 whole entry)": "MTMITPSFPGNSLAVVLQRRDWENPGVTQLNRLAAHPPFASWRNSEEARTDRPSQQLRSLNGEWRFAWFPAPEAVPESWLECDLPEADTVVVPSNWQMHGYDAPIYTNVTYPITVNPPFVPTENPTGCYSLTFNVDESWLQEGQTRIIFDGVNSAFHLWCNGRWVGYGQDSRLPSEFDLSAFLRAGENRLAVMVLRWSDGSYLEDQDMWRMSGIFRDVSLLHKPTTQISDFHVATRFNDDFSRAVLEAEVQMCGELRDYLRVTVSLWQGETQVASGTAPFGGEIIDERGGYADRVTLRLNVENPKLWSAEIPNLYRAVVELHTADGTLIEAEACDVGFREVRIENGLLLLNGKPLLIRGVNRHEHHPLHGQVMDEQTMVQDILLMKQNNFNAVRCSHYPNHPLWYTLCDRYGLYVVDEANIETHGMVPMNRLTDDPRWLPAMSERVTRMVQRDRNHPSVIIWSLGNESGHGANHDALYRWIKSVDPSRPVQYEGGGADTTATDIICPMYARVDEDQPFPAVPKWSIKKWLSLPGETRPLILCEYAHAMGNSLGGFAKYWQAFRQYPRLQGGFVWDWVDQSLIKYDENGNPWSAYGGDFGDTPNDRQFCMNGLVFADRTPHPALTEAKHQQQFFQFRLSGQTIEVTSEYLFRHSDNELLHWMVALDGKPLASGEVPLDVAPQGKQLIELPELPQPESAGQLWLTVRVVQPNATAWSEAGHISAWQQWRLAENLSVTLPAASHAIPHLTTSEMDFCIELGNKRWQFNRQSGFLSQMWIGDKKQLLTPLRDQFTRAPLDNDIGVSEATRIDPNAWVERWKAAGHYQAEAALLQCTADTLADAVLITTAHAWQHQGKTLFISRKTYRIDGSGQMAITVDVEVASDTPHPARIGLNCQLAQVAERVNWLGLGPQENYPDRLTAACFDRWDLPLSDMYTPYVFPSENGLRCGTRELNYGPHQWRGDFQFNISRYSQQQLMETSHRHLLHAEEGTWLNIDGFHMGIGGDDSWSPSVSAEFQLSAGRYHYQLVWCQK", "assay": "PubChem AID 485352", "type": "functional"}, "[5]": {"assay": "Trypanosoma cruzi growth suppression in host cells – NIH3T3 host cells, beta-gal luminescence, confirmation (AID 2044);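 further: intracellular parasites grown in NIH/3T3 mouse fibroblasts as host cells; luminescent beta-galactosidase reporter signal from transgenic T. cruzi replicating inside host cells; inhibitors lower the luminescence signal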", "type": "functional, cell-based"}, "[6]": {"target": "Type-1 angiotensin II receptor (Homo sapiens, UniProt P30556)", "sequence (P30556 whole entry)": "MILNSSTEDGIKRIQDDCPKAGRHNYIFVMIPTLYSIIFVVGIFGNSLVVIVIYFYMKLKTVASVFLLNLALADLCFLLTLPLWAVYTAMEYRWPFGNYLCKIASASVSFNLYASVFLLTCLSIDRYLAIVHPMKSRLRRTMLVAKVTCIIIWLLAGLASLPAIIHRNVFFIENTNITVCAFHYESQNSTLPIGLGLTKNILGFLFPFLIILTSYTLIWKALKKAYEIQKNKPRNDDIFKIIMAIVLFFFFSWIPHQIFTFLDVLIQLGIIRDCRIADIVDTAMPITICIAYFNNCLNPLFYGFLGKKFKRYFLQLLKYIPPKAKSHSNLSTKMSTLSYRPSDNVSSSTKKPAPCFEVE", "assay": "antagonism of angiotensin II type 1 receptor – cell-based, uHTS hits, selectivity assay for APJ receptor antagonist project, dose response (AID 463214);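 further: antagonist potency against angiotensin II stimulated AT1 response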", "type": "functional"}, "[7]": {"target": "T3, Kappa-type opioid receptor (Homo sapiens, UniProt P41145)", "T3 sequence (P41145 whole entry)": "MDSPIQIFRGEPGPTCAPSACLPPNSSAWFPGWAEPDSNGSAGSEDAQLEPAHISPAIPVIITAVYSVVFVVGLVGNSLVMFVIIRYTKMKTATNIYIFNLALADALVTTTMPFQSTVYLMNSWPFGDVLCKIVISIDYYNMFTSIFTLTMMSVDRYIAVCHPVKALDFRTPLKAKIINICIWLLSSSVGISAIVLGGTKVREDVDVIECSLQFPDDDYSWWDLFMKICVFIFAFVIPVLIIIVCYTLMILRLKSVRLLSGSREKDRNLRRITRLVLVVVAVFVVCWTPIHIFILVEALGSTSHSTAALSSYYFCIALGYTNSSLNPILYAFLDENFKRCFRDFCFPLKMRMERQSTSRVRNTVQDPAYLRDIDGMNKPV", "type": "functional"}, "[8]": {"assay": "NIH3T3 cell viability loss – ATP luminescence, mouse fibroblasts, counter-screen, dose response (AID 2010);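 further: cells exposed to compound for about 90 hours before reading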", "type": "functional, cell-based"}, "Beta-galactosidase [9]": {"target": "T2, Beta-galactosidase", "type": "functional"}, "[10]": {"target": "T3, Kappa-type opioid receptor", "type": "functional", "remark": "listed apart in the source"}, "Streptococcus": {"system": "Streptococcus", "assay": "GAS UMAA2166 growth inhibition – luminescence, BacTiterGlo, counter-screen for streptokinase expression inhibitor project, dose response (AID 1915);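 further: potency for reduction of bacterial viability or growth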", "type": "functional, organism-based"}, "[11]": {"assay": "THP-1 cell cytotoxicity, dose response, cytotoxicity control for non-replicating M. tuberculosis project (AID 489025)", "type": "functional"}, "[12]": {"assay": "HepG2 cell cytotoxicity, dose response, cytotoxicity control for non-replicating M. tuberculosis project (AID 489018)", "type": "functional", "details": "Mycobacterium tuberculosis"}, "[13]": {"assay": "Vero E6 cell cytotoxicity, dose response, cytotoxicity control for non-replicating M. tuberculosis project, secondary assay (AID 492998)", "type": "functional, VeroE6", "details": "Vero C1008"}, "cells": {"assay": "cells", "type": "functional"}, "CAAX prenyl protease 2 [14]": {"target": "T4, CAAX prenyl protease 2 (Saccharomyces cerevisiae S288c, UniProt Q03530)", "T4 sequence (Q03530 whole entry)": "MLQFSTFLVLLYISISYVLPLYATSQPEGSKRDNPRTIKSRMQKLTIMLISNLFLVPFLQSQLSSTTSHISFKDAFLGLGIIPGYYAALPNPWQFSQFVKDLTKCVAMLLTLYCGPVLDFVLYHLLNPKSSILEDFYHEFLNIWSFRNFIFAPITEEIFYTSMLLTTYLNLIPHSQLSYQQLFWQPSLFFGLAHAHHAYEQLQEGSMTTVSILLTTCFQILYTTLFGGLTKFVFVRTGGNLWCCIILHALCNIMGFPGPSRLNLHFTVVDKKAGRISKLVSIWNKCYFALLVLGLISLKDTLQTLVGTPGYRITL", "type": "biochemical"}, "CAAX prenyl protease 2 [15]": {"target": "T4, CAAX prenyl protease 2", "assay": "inhibition of Rce1p peptide cleavage – biochemical, plate reader, dry powder retest, dose response (AID 588851)"}, "[16]": {"target": "Cyclin-dependent kinase 2 (Homo sapiens, UniProt P24941)", "assay": "inhibition of human CDK2/cyclin A – biochemical, cherry-picked samples, selectivity assay for Dyrk1A inhibitor project, dose response (AID 602127)"}, "[17]": {"target": "Dual specificity protein kinase CLK1 (Homo sapiens, UniProt P49759)", "sequence (P49759 whole entry)": "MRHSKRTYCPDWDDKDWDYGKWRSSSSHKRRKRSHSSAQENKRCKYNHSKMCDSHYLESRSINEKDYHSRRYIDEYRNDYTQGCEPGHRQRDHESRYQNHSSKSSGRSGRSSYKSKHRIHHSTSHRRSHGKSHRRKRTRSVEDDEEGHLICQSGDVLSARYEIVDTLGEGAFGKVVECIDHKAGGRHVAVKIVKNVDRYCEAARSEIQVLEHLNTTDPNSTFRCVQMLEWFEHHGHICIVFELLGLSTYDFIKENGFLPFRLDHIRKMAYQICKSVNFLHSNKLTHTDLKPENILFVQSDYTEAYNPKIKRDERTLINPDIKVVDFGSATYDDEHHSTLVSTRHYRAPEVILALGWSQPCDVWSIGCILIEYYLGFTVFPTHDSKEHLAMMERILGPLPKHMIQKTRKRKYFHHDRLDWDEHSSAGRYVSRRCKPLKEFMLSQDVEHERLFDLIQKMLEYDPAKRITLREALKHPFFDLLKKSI", "assay": "inhibition of human CLK1 activity – biochemical, cherry-picked samples, selectivity assay for Dyrk1A inhibitor project, dose response (AID 588811)"}, "[18]": {"assay": "NIH-3T3 fibroblast cytotoxicity, dose response, cytotoxicity control, cell-based, fluorescence, Alamar Blue, secondary assay (AID 2327);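 further: NIH-3T3 mouse fibroblasts cultured with fluconazole at 8 µg/mL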", "type": "functional"}, "BJ [19]": {"system": "BJ", "assay": "BJ-TERT fibroblast viability loss – cell-based, RAS-independent, luminescence, dose response (AID 1933)", "type": "functional", "details": "Homo sapiens"}, "BJ [20]": {"system": "BJ", "assay": "cells", "type": "functional, cell-based", "details": "Homo sapiens"}, "[21]": {"assay": "fluconazole-exposed Candida albicans growth modulators – fluorescence, retest, confirmation (AID 2467)", "type": "functional, cell-based"}, "BJ [22]": {"system": "BJ", "assay": "BJ-TERT-LT-ST fibroblast viability loss – cell-based, RAS-independent, luminescence, dose response (AID 1935);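 further: BJ fibroblasts immortalized with TERT plus LT and ST oncogenes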", "type": "functional", "details": "Homo sapiens"}, "[23]": {"assay": "DRD fibroblast viability loss – cell-based, non-viral oncogenic, luminescence, dose response (AID 1934)", "type": "functional", "details": "Homo sapiens"}, "Trypsin": {"target": "Trypsin (Sus scrofa, UniProt P00761)", "sequence (P00761 whole entry)": "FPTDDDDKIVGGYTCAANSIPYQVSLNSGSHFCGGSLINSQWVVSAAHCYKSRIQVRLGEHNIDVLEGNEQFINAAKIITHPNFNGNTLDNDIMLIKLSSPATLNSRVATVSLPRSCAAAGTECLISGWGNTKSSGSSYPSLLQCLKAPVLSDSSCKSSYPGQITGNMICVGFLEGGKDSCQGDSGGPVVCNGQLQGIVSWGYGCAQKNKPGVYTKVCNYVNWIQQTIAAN", "assay": "trypsin protease activity blockade – biochemical, quenched peptide fluorescence, cherry-pick, selectivity assay for Rce1 protease inhibitor project, dose response (AID 488789)"}, "[24]": {"assay": "HEK-293T viability loss after treatment – luminescence, T-cell screen hits, cytotoxicity control for TCR NF-kB inhibitor project, dose response (AID 489026);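 further: cells exposed to compound about 14 hours before the viability readout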", "type": "functional, cell-based"}, "CAAX prenyl protease 1": {"target": "CAAX prenyl protease 1 (Saccharomyces cerevisiae S288c, UniProt P47154)", "sequence (P47154 whole entry)": "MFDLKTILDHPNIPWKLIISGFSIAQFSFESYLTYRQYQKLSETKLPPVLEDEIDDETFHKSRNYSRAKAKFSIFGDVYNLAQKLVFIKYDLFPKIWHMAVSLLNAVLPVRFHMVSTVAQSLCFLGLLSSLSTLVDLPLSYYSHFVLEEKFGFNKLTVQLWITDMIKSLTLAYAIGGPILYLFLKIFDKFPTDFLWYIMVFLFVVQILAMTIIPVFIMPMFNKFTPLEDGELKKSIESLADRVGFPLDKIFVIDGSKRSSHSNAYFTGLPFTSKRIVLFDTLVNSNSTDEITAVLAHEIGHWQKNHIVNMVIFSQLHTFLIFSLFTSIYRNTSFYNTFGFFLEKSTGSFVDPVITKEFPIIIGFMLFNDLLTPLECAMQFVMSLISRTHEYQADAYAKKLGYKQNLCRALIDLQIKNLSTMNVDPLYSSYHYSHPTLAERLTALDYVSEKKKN", "assay": "yeast CAAX protease Ste24 inhibition – biochemical, S. cerevisiae, plate reader, cherry-pick, dose response (AID 488815)"}, "INS1": {"system": "INS1", "assay": "INS-1E survival protection against cytokine death – cell-based, luminescence, retest, dose response (AID 449756);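 further: cell death triggered by IL-1 beta plus TNF-alpha plus IFN-gamma mixture; protective hits raise ATP signal compared with cytokine alone wells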", "type": "functional", "details": "Rattus norvegicus"}, "CAAX prenyl protease 2 [25]": {"target": "CAAX prenyl protease 2 (Homo sapiens, UniProt Q9Y256)", "sequence (Q9Y256 whole entry)": "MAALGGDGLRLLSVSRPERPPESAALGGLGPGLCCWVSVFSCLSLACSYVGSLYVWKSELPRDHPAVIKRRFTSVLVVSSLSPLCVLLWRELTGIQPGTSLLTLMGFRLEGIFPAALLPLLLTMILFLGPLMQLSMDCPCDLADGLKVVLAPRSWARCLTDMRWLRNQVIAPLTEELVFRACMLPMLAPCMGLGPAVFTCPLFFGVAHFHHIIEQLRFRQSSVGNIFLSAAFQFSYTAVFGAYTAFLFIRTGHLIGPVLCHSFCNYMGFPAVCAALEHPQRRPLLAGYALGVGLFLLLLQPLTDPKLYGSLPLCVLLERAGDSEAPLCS", "assay": "inhibition of Ras-converting CAAX protease Rce1 – biochemical, yeast membranes, quenched-peptide fluorescence, cherry-pick, dose response (AID 588849)"}}, "note": "Active and inactive are the calls of the source.", "data": [{"compound": "Cc1[nH]c2ccccc2c1/C=C1\\SC(=N)N(c2nccs2)C1=O", "values": [{"measurement": "IC50", "setting": "[1]", "value": "23.4 µM (inactive)"}, {"measurement": "EC50", "setting": "Mu-type opioid receptor", "value": "> 32 µM (inactive)"}, {"measurement": "EC50", "setting": "[2]", "value": "0.198 µM (active)"}, {"measurement": "EC50", "setting": "[3]", "value": "> 32 µM (inactive)"}, {"measurement": "EC50", "setting": "Beta-galactosidase [4]", "value": "> 40 µM (inactive)"}, {"measurement": "EC50", "setting": "[5]", "value": "1.17 µM (active)"}, {"measurement": "IC50", "setting": "[6]", "value": "14.8 µM (active)"}, {"measurement": "IC50", "setting": "[7]", "value": "6.76 µM (active)"}, {"measurement": "EC50", "setting": "[8]", "value": "5.8 µM (active)"}, {"measurement": "EC50", "setting": "Beta-galactosidase [9]", "value": "> 31.5 µM (inactive)"}, {"measurement": "IC50", "setting": "[10]", "value": 18.1, "unit": "µM"}, {"measurement": "EC50", "setting": "Streptococcus", "value": "1.08 µM (active)"}, {"measurement": "CC50", "setting": "[11]", "value": "10.1 µM (active)"}, {"measurement": "CC50", "setting": "[12]", "value": "8.83 µM (active)"}, {"measurement": "CC50", "setting": "[13]", "value": "5.16 µM (active)"}, {"measurement": "IC50", "setting": "cells", "value": "< 0.1 µM (active)"}]}, {"compound": "CN(C(=O)COC(=O)c1cn(-c2ccccc2)nc1-c1ccccc1)C1CCS(=O)(=O)C1", "note": "(stereo unspecified)", "values": [{"measurement": "AC50", "setting": "CAAX prenyl protease 2 [14]", "value": "0.679 µM (active)"}, {"measurement": "AC50", "setting": "CAAX prenyl protease 2 [15]", "value": "25.1 µM (active)"}]}, {"compound": "Cc1ccsc1CN(C)c1ncnc2ccc(-c3ccoc3)cc12", "values": [{"measurement": "AC50", "setting": "[16]", "value": "7.77 µM (active)"}, {"measurement": "AC50", "setting": "[17]", "value": "0.0138 µM (active)"}]}, {"compound": "Cc1ccc(-c2cc(-c3ccc(C)cc3)[n+](-c3ccccc3)c(-c3ccc(C)cc3)c2)cc1.[O-][Cl+3]([O-])([O-])[O-]", "values": [{"measurement": "EC50", "setting": "[18]", "value": "18.4 µM (inconclusive)"}, {"measurement": "EC50", "setting": "BJ [19]", "value": "0.689 µM (active)"}, {"measurement": "EC50", "setting": "BJ [20]", "value": "2.12 µM (active)"}, {"measurement": "EC50", "setting": "[21]", "value": "0.178 µM (active)"}, {"measurement": "EC50", "setting": "BJ [22]", "value": "1.33 µM (inconclusive)"}, {"measurement": "EC50", "setting": "[23]", "value": "1.05 µM (active)"}, {"measurement": "AC50", "setting": "Trypsin", "value": "23.8 µM (active)"}, {"measurement": "IC50", "setting": "[24]", "value": "20.3 µM (inactive)"}, {"measurement": "AC50", "setting": "CAAX prenyl protease 1", "value": "13.7 µM (active)"}, {"measurement": "AC50", "setting": "INS1", "value": "0.382 µM (active)"}, {"measurement": "AC50", "setting": "CAAX prenyl protease 2 [25]", "value": "20.7 µM (active)"}]}]}
